Experimental data published in ChEMBL document CHEMBL1138147, “Respiratory syncytial virus fusion inhibitors. Part 3: Water-soluble benzimidazol-2-one derivatives with antiviral activity in vivo” (Bioorg Med Chem Lett, 2006).

How the values were obtained:
HEp-2 = assay: Cytotoxicity against human Hep2 cells infected with RSV Long strain; assay type: functional
[1] = tested on: Respiratory syncytial virus; assay: Antiviral activity against RSV Long strain in human Hep2 cells; assay type: functional, organism-based; conditions: HEp-2
[2] = Therapeutic index (CC50/EC50) for RSV infected Hep2 cells; assay type: cell-based, HEp-2; conditions: human, read-out: Ratio CC50/EC50
Cotton rat [3] = assay: Efficacy in cotton rat measured as reduction in log TCID50 of RSV per gram of lung at 2.0 mg/mL; assay type: functional
Cotton rat [4] = assay: Efficacy in cotton rat measured as reduction in log TCID50 of RSV per gram of lung at 1.33 mg/mL; assay type: functional, organism-based; conditions: Sigmodon
Cotton rat [5] = assay: Efficacy in cotton rat measured as reduction in log TCID50 of RSV per gram of lung at 0.5 mg/mL; assay type: functional, Sigmodon
Cotton rat [6] = assay: Efficacy in cotton rat measured as reduction in log TCID50 of RSV per gram of lung at 0.2 mg/mL; assay type: functional, Sigmodon
Cotton rat [7] = assay: Efficacy in cotton rat measured as reduction in log TCID50 of RSV per gram of lung at 0.01 mg/mL; assay type: functional, Sigmodon
Cotton rat [8] = assay: Efficacy in cotton measured as reduction in log TCID50 of RSV per gram of lung rat at 0.05 mg/mL; assay type: functional, Sigmodon
Cotton rat [9] = assay: Efficacy in cotton rat measured as reduction in log TCID50 of RSV per gram of lung at 1.6 mg/mL; assay type: functional, Sigmodon
Cotton rat [10] = assay: Efficacy in cotton rat measured as reduction in log TCID50 of RSV per gram of lung at 1.0 mg/mL; assay type: functional, Sigmodon
Mus musculus [11] = assay: Efficacy in BALB/c mouse measured as reduction in log TCID50 of RSV per gram of lung at 90 mg/kg, sc; assay type: functional; conditions: route subcutaneous
Cotton rat [12] = assay: Efficacy in cotton rat measured as reduction in log TCID50 of RSV per gram of lung at 90 mg/kg, ip; assay type: functional, Sigmodon; conditions: route intraperitoneal
Mus musculus [13] = assay: Efficacy in BALB/c mouse measured as reduction in log TCID50 of RSV per gram of lung at 120 mg/kg, sc; assay type: functional; conditions: route subcutaneous
Cotton rat [14] = assay: Efficacy in cotton rat measured as reduction in log TCID50 of RSV per gram of lung at 0.67 mg/mL; assay type: functional, Sigmodon

CC(C)CCn1c(Cn2c(=O)n(CCCCCc3nnn[nH]3)c3ccccc32)nc2ccccc21
CC50 (HEp-2): 90000 nM
EC50 [1]: 13 nM
selectivity ratio [2]: 6920
Activity (Cotton rat [3]; Sigmodon): Toxic

CC(C)CCn1c(Cn2c(=O)n(CCCS(=O)(=O)O)c3ccccc32)nc2ccccc21
CC50 (HEp-2): 114000 nM
EC50 [1]: 38 nM
selectivity ratio [2]: 3010

CC(C)CCn1c(Cn2c(=O)n(CC(=O)O)c3ccccc32)nc2ccccc21
CC50 (HEp-2): 194000 nM
EC50 [1]: 163 nM

CC(C)CCn1c(Cn2c(=O)n(CCCCc3nnn[nH]3)c3ccccc32)nc2ccccc21
CC50 (HEp-2): 14900 nM
EC50 [1]: 15 nM
selectivity ratio [2]: 993

O=c1n(Cc2ccc(P(=O)(O)O)cc2)c2ccccc2n1Cc1nc2ccccc2[nH]1
CC50 (HEp-2): > 174000 nM
EC50 [1]: 368 nM
selectivity ratio [2]: > 473

CC(C)CCn1c(Cn2c(=O)n(Cc3ccc(C(=O)N[C@@H](CC(=O)O)C(=O)O)cc3)c3ccccc32)nc2ccccc21
CC50 (HEp-2): > 144000 nM
EC50 [1]: 5 nM
selectivity ratio [2]: > 28800
Efficacy (Cotton rat [3]): 2.6

C=C(C)n1c(=O)n(Cc2nc3ccccc3n2CCCc2nnn[nH]2)c2ccccc21
CC50 (HEp-2): > 330 nM
EC50 [1]: 14 nM
selectivity ratio [2]: > 23

C=C(C)n1c(=O)n(Cc2nc3ccccc3n2CCc2nnn[nH]2)c2ccccc21
Activity (Cotton rat [4]): Toxic
CC50 (HEp-2): > 249000 nM
EC50 [1]: 8 nM

CN(C)CCCn1c(Cn2c(O)nc3ccccc32)nc2ccccc21
CC50 (HEp-2): 89100 nM
EC50 [1]: 1660 nM
selectivity ratio [2]: 53

CC(C)CCn1c(Cn2c(=O)n(Cc3ccc(C(=O)N[C@@H](CP(=O)(O)O)C(=O)O)cc3)c3ccccc32)nc2ccccc21
CC50 (HEp-2): > 114000 nM
EC50 [1]: 34 nM
selectivity ratio [2]: > 3350
Efficacy (Cotton rat [5]): 2.43

CC(C)CCn1c(Cn2c(=O)n(CCC(=O)O)c3ccccc32)nc2ccccc21
CC50 (HEp-2): 102000 nM
EC50 [1]: 15 nM
selectivity ratio [2]: 6810

CC(C)CCn1c(Cn2c(=O)n(Cc3cccc(C(=O)O)c3)c3ccccc32)nc2ccccc21
CC50 (HEp-2): 10700 nM
EC50 [1]: 10 nM
selectivity ratio [2]: 1070

CC(C)CCn1c(Cn2c(=O)n(Cc3ccc(CP(=O)(O)O)cc3)c3ccccc32)nc2ccccc21
CC50 (HEp-2): 2800 nM
EC50 [1]: 51 nM
selectivity ratio [2]: 55

CC(C)CCn1c(Cn2c(=O)n(Cc3ccc(P(=O)(O)O)cc3)c3ccccc32)nc2ccccc21
Efficacy (Cotton rat [6]): 3.5
CC50 (HEp-2): > 175000 nM
EC50 [1]: 27 nM
selectivity ratio [2]: 3000
Efficacy (Cotton rat [7]): 4.4
Efficacy (Cotton rat [3]): 2.1
Efficacy (Cotton rat [8]): 4

COc1ccc(Cn2c(=O)n(Cc3nc4ccccc4[nH]3)c3ccccc32)cc1
CC50 (HEp-2): 41100 nM
EC50 [1]: 333 nM
selectivity ratio [2]: 123

CC(C)CCn1c(Cn2c(=O)n(Cc3ccccc3S(=O)(=O)O)c3ccccc32)nc2ccccc21
CC50 (HEp-2): > 19000 nM
Efficacy (Cotton rat [9]): 2.25
EC50 [1]: 7 nM
selectivity ratio [2]: > 2710

CC(C)CCn1c(Cn2c(=O)n(Cc3ccc(Cn4c(=O)ccn(CC(=O)N[C@@H](CC(=O)O)C(=O)O)c4=O)cc3)c3ccccc32)nc2ccccc21
Efficacy (Cotton rat [6]): 3.22
Efficacy (Cotton rat [10]): 1.83
CC50 (HEp-2): > 106000 nM
EC50 [1]: 8 nM
selectivity ratio [2]: > 13200

CC(C)n1c(=O)n(Cc2nc3ccccc3n2CCc2nnn[nH]2)c2ccccc21
CC50 (HEp-2): 177000 nM
EC50 [1]: 15 nM
selectivity ratio [2]: 11800

O=C(O)Cn1c(=O)n(Cc2nc3ccccc3n2CCCO)c2ccccc21
CC50 (HEp-2): 229000 nM
EC50 [1]: 1930 nM
selectivity ratio [2]: 119

CC(C)CCn1c(Cn2c(=O)n(CCCc3nnn[nH]3)c3ccccc32)nc2ccccc21
CC50 (HEp-2): 37100 nM
EC50 [1]: 235 nM
selectivity ratio [2]: 158

C=C(C)n1c(=O)n(Cc2nc3ccccc3n2Cc2nn[nH]n2)c2ccccc21
CC50 (HEp-2): 181000 nM
EC50 [1]: 8440 nM
selectivity ratio [2]: 21

CC(C)CCn1c(Cn2c(=O)n(Cc3ccc(C(=O)O)cc3)c3ccccc32)nc2ccccc21
CC50 (HEp-2): 27300 nM
EC50 [1]: 11 nM
selectivity ratio [2]: 2480

O=c1n(Cc2ccc(O)cc2)c2ccccc2n1Cc1nc2ccccc2[nH]1
CC50 (HEp-2): 58700 nM
EC50 [1]: 63 nM
selectivity ratio [2]: 932

CC(C)CCn1c(Cn2c(=O)n(Cc3nn[nH]n3)c3ccccc32)nc2ccccc21
CC50 (HEp-2): > 210000 nM
EC50 [1]: 500 nM
selectivity ratio [2]: > 420

CC(C)CCn1c(Cn2c(=O)n(CC(=O)NS(C)(=O)=O)c3ccccc32)nc2ccccc21
CC50 (HEp-2): 152000 nM
EC50 [1]: 613 nM
selectivity ratio [2]: 247

CC(C)CCn1c(Cn2c(=O)n(CCN(C)C)c3ccccc32)nc2ccccc21
CC50 (HEp-2): 10000 nM
EC50 [1]: 400 nM
selectivity ratio [2]: 25

NC(=O)c1ncn([C@@H]2O[C@H](CO)[C@@H](O)[C@H]2O)n1 [RIBAVIRIN]
Efficacy (Mus musculus [11]): 1.86
Efficacy (Cotton rat [12]): 2.5

Oc1nc2ccccc2n1Cc1nc2ccccc2n1CCn1cnnn1
CC50 (HEp-2): 92000 nM
EC50 [1]: 1200 nM
selectivity ratio [2]: 77

Cn1c(=O)n(Cc2nc3ccccc3[nH]2)c2ccccc21
CC50 (HEp-2): > 202000 nM
EC50 [1]: 593 nM
selectivity ratio [2]: > 340

CC(C)CCn1c(Cn2c(=O)n(CCCCCC(=O)O)c3ccccc32)nc2ccccc21
CC50 (HEp-2): 16500 nM
EC50 [1]: 15 nM
selectivity ratio [2]: 1100

CC(C)CCn1c(Cn2c(=O)n(CCCC(=O)O)c3ccccc32)nc2ccccc21
CC50 (HEp-2): 138000 nM
EC50 [1]: 75 nM
selectivity ratio [2]: 1840

CC(C)n1c(=O)n(Cc2nc3ccccc3n2CCc2noc(O)n2)c2ccccc21
Efficacy (Mus musculus [13]): 2.55
CC50 (HEp-2): 75400 nM
EC50 [1]: 21 nM
selectivity ratio [2]: 3540
Efficacy (Cotton rat [5]): 2.1

CCOP(=O)(O)c1ccc(Cn2c(=O)n(Cc3nc4ccccc4n3CCC(C)C)c3ccccc32)cc1
CC50 (HEp-2): > 180000 nM
EC50 [1]: 48 nM
selectivity ratio [2]: > 3350

CC(C)CCn1c(Cn2c(=O)n(CCCN(C)C)c3ccccc32)nc2ccccc21
CC50 (HEp-2): 5300 nM
EC50 [1]: 292 nM
selectivity ratio [2]: 18

O=C(O)c1ccc(Cn2c(=O)n(Cc3nc4ccccc4n3CCCO)c3ccccc32)cc1
CC50 (HEp-2): 210000 nM
EC50 [1]: 49 nM
selectivity ratio [2]: 4280

O=C(O)c1ccc(Cn2c(=O)n(Cc3nc4ccccc4n3CCCCO)c3ccccc32)cc1
CC50 (HEp-2): > 196000 nM
EC50 [1]: 4 nM
selectivity ratio [2]: > 49000

O=c1n(Cc2nc3ccccc3[nH]2)c2ccccc2n1Cc1ccccc1S(=O)(=O)O
CC50 (HEp-2): 130000 nM
EC50 [1]: 13 nM
selectivity ratio [2]: 9970

CC(C)CCn1c(Cn2c(=O)n(Cc3cc(C(=O)O)cc(C(=O)O)c3)c3ccccc32)nc2ccccc21
CC50 (HEp-2): > 168000 nM
EC50 [1]: 656 nM
selectivity ratio [2]: > 256

O=c1n(Cc2ccccc2)c2ccccc2n1Cc1nc2ccccc2[nH]1
CC50 (HEp-2): 129000 nM
EC50 [1]: 114 nM
selectivity ratio [2]: 1130

CC(C)CCn1c(Cn2c(=O)n(Cc3ccccc3C(=O)N[C@@H](CC(=O)O)C(=O)O)c3ccccc32)nc2ccccc21
CC50 (HEp-2): 154000 nM
EC50 [1]: 6 nM
selectivity ratio [2]: ≥ 25700

CC(C)CCn1c(Cn2c(=O)n(CC(=O)NS(=O)(=O)c3ccccc3)c3ccccc32)nc2ccccc21
CC50 (HEp-2): 14100 nM
EC50 [1]: 1210 nM
selectivity ratio [2]: 12

O=C(O)c1cccc(Cn2c(=O)n(Cc3nc4ccccc4[nH]3)c3ccccc32)c1
CC50 (HEp-2): > 194000 nM
EC50 [1]: 7 nM
selectivity ratio [2]: 6430

C=C(C)n1c(=O)n(Cc2nc3ccccc3n2CCCN(C)C)c2ccccc21
CC50 (HEp-2): 19900 nM
EC50 [1]: 75 nM
selectivity ratio [2]: 265

Oc1nc2ccccc2n1Cc1nc2ccccc2[nH]1
CC50 (HEp-2): 228000 nM
EC50 [1]: 1010 nM
selectivity ratio [2]: 226

O=C(O)c1ccc(Cn2c(=O)n(Cc3nc4ccccc4[nH]3)c3ccccc32)cc1
Efficacy (Cotton rat [14]): 3.6
CC50 (HEp-2): 75500 nM
EC50 [1]: 14 nM
selectivity ratio [2]: 5400

O=C(O)CN(CC(=O)O)C(=O)c1ccc(Cn2c(=O)n(Cc3nc4ccccc4n3CCCCO)c3ccccc32)cc1
CC50 (HEp-2): 112000 nM
EC50 [1]: 57 nM
selectivity ratio [2]: 1960

CC(C)CCn1c(Cn2c(=O)n(CCCCC(=O)O)c3ccccc32)nc2ccccc21
CC50 (HEp-2): 16500 nM
EC50 [1]: 8 nM
selectivity ratio [2]: 2060

O=C(O)Cn1c(=O)n(Cc2nc3ccccc3[nH]2)c2ccccc21
CC50 (HEp-2): 20600 nM
EC50 [1]: 155 nM
selectivity ratio [2]: 133

CC(C)CCn1c(Cn2c(=O)n(Cc3ccc(Cn4c(=O)ccn(CC(=O)O)c4=O)cc3)c3ccccc32)nc2ccccc21
CC50 (HEp-2): > 159000 nM
EC50 [1]: 3 nM
selectivity ratio [2]: > 53000

CC(C)CCn1c(Cn2c(=O)n(Cc3ccccc3C(=O)O)c3ccccc32)nc2ccccc21
CC50 (HEp-2): 15700 nM
EC50 [1]: 11 nM
selectivity ratio [2]: 1430

CC(C)CCn1c(Cn2c(=O)n(CCCCS(=O)(=O)O)c3ccccc32)nc2ccccc21
CC50 (HEp-2): 2900 nM
EC50 [1]: 52 nM
selectivity ratio [2]: 56

C=C(C)n1c(=O)n(Cc2nc3ccccc3n2CCc2nn[nH]n2)c2ccccc21
selectivity ratio [2]: 14600
